Laboratory results reported in ChEMBL document CHEMBL1201862, “PubChem BioAssay data set” (2004).
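The compound was tested at five concentrations on cells cultured in 96-well plates, with a 48-hour exposure period. At the GI50, growth is halved.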 Activity calls are given as the source filed them. No stated cut-off is given here; in the data, active = GI50 up to about 1.1 µM and inactive = higher.

What was measured:
Experiment in all cases: NCI-60 cell line screen, 48 h
[1] = test system: NCI-H460
[2] = test system: HCT-116
[3] = test system: SR
[4] = test system: RXF 393
[5] = test system: HCC 2998
[6] = test system: SNB-19
[7] = test system: UACC-257
[8] = test system: CCRF-CEM
[9] = test system: RPMI-8226
[10] = test system: Malme-3M
[11] = test system: LXFL 529
[12] = test system: SF-268
[13] = test system: SW-620
[14] = test system: MOLT-4
[15] = test system: SK-MEL-5
[16] = test system: SK-MEL-28
[17] = test system: SN12C

Measured: GI50

COC(=O)c1onc(-c2c(OC)cc(OC)cc2OC)c1C(=O)OC
inactive: [1] > 100 µM | [2] > 100 µM | [3] > 100 µM | [4] > 100 µM | [5] > 100 µM | [6] > 100 µM | [7] > 100 µM | [8] > 100 µM | [9] > 100 µM | [10] > 100 µM | [11] > 100 µM | [12] > 100 µM | [13] > 100 µM | [14] > 100 µM | [15] > 100 µM | [16] > 100 µM

COc1cc2oc(-c3ccc(O)cc3)cc(=O)c2c(O)c1C1OC(CO)C(O)C(O)C1O (stereo not drawn)
inactive: [1] > 100 µM | [2] > 100 µM | [3] > 100 µM | [5] > 100 µM | [6] > 100 µM | [7] > 100 µM | [8] > 100 µM | [9] > 100 µM | [10] > 100 µM | [11] > 100 µM | [12] > 100 µM | [13] 11.5 µM | [14] > 100 µM | [15] > 100 µM | [17] > 100 µM | [16] > 100 µM

COc1ccc(C(=O)N2c3ccccc3N(C)n3cccc3C2CC(=O)O)cc1 (stereo not drawn)
inactive: [1] > 100 µM | [4] > 100 µM | [5] > 100 µM | [6] > 100 µM | [7] > 100 µM | [8] > 100 µM | [9] > 100 µM | [10] > 100 µM | [11] > 100 µM | [12] > 100 µM | [13] > 100 µM | [14] > 100 µM | [15] > 100 µM | [17] > 100 µM | [16] > 100 µM

CCOC(=N)CC(=O)Nc1ccc(Cl)cc1
inactive: [1] > 100 µM | [2] > 100 µM | [3] > 100 µM | [4] > 100 µM | [5] > 100 µM | [6] > 100 µM | [7] > 100 µM | [8] > 100 µM | [10] > 100 µM | [11] > 100 µM | [12] > 100 µM | [13] > 100 µM | [14] > 100 µM | [15] > 100 µM | [17] > 100 µM | [16] > 100 µM

O=C1C2c3[nH]c4ccccc4c3[C@@H]3CCCCCCCCCCC3C2C(=O)N1c1ccccc1 (stereo partly drawn)
inactive: [1] 17.3 µM | [3] 12.8 µM | [4] 14.8 µM | [5] 27.5 µM | [6] 12.4 µM | [9] 38.6 µM | [11] 13.5 µM | [12] 13.6 µM | [13] 15.2 µM | [15] 78 µM | [17] 18.6 µM | [16] 23.2 µM

COc1cc(C2C(Cl)C(=O)N2NC(=O)Cc2ccccc2)cc(Br)c1O (stereo not drawn)
inactive: [1] 80.9 µM | [2] 71.4 µM | [3] 56.6 µM | [4] 92.3 µM | [5] > 100 µM | [6] > 100 µM | [7] > 100 µM | [8] 46.1 µM | [9] 42.5 µM | [10] > 100 µM | [11] 86.3 µM | [12] 61 µM | [13] > 100 µM | [14] 50.6 µM | [15] 69.8 µM | [17] > 100 µM | [16] > 100 µM

COc1ccc(-c2nnc(-c3c(C)n(C)n(-c4ccccc4)c3=O)o2)cc1
inactive: [1] > 100 µM | [2] > 100 µM | [3] > 100 µM | [4] > 100 µM | [5] > 100 µM | [6] > 100 µM | [7] > 100 µM | [8] > 100 µM | [9] > 100 µM | [10] > 100 µM | [11] > 100 µM | [12] > 100 µM | [13] > 100 µM | [14] > 100 µM | [17] > 100 µM | [16] > 100 µM

CCC1CCc2c(OC)ccc(OCC(=O)O)c2C1=O (stereo not drawn)
inactive: [3] > 100 µM | [4] > 100 µM | [5] > 100 µM | [6] > 100 µM | [7] > 100 µM | [8] > 100 µM | [9] > 100 µM | [10] > 100 µM | [11] > 100 µM | [12] > 100 µM | [13] > 100 µM | [14] > 100 µM | [15] > 100 µM | [17] > 100 µM | [16] > 100 µM

Cc1cc2c(C)nn(Cc3ccccc3)c2c(C(=O)O)c1C
inactive: [2] > 100 µM | [3] > 100 µM | [4] > 100 µM | [5] > 100 µM | [6] > 100 µM | [7] > 100 µM | [8] > 100 µM | [9] > 100 µM | [10] > 100 µM | [11] > 100 µM | [12] > 100 µM | [13] > 100 µM | [14] > 100 µM | [17] > 100 µM | [16] > 100 µM

CCOC(=O)CC1=N/C(=N/c2cc(Cl)ccc2Cl)SC1
inactive: [1] > 100 µM | [2] 97.9 µM | [4] > 100 µM | [5] > 100 µM | [6] > 100 µM | [7] > 100 µM | [8] 76.9 µM | [10] > 100 µM | [11] > 100 µM | [12] > 100 µM | [13] > 100 µM | [15] > 100 µM | [17] > 100 µM | [16] > 100 µM

Cc1cc2cc(Cl)ccc2nc1C(=O)c1ccccc1
inactive: [2] > 100 µM | [3] > 100 µM | [4] 22.5 µM | [5] > 100 µM | [6] > 100 µM | [7] 32.4 µM | [9] > 100 µM | [10] > 100 µM | [11] > 100 µM | [12] > 100 µM | [13] > 100 µM | [14] > 100 µM | [15] > 100 µM | [17] > 100 µM | [16] > 100 µM

CCOC(=O)Nn1c(C)cc(C(=O)OC)c1C
inactive: [1] > 100 µM | [2] > 100 µM | [4] > 100 µM | [5] > 100 µM | [6] > 100 µM | [7] > 100 µM | [8] > 100 µM | [9] > 100 µM | [10] > 100 µM | [11] > 100 µM | [12] > 100 µM | [13] > 100 µM | [14] > 100 µM | [15] > 100 µM | [17] > 100 µM | [16] > 100 µM

CC(=O)Nc1ccc(/C=c2\sc3nnc(-c4cccnc4)n3c2=O)cc1
inactive: [1] 16.3 µM | [2] 15.6 µM | [3] 17.3 µM | [4] 22.3 µM | [5] 20.7 µM | [6] 24.2 µM | [7] 21.8 µM | [8] 17.4 µM | [10] 19.1 µM | [11] 15.9 µM | [12] 25.2 µM | [13] 17.8 µM | [14] 19.7 µM | [15] 17.4 µM | [17] 14.4 µM | [16] 17 µM

CC1=C(C(=O)Nc2cccc(Cl)c2)C(c2ccc([N+](=O)[O-])cc2)C(C(=O)Nc2cccc(Cl)c2)=C(C)N1
inactive: [1] 20.1 µM | [2] 13.1 µM | [4] 19.5 µM | [5] 17.9 µM | [6] 37.2 µM | [7] 16.7 µM | [8] 10.9 µM | [9] 15.5 µM | [10] 21 µM | [11] 23.5 µM | [12] 27 µM | [13] > 10 µM | [14] 10.3 µM | [15] 17.5 µM | [17] 22.3 µM | [16] 25.3 µM

C[N+]1(C)C/C(=C\c2ccncc2)C(=O)/C(=C/c2ccncc2)C1
inactive: [1] > 100 µM | [2] 38.5 µM | [3] > 100 µM | [4] > 100 µM | [5] > 100 µM | [6] > 100 µM | [7] > 100 µM | [8] 37.1 µM | [9] 63.8 µM | [10] > 100 µM | [11] > 100 µM | [12] 25.2 µM | [13] 52.7 µM | [14] > 100 µM | [15] > 100 µM | [17] > 100 µM | [16] > 100 µM

O=C(Nc1ccc(Cl)cc1C(=O)O)c1ccc([N+](=O)[O-])cc1
inactive: [1] 18.5 µM | [2] 12.2 µM | [5] 11.2 µM | [6] 14.5 µM | [7] 18.6 µM | [8] 20.2 µM | [9] 26.5 µM | [10] 4.95 µM | [11] 15.5 µM | [12] 20.2 µM | [13] 29.7 µM | [14] 22.4 µM | [15] 20.3 µM | [17] 37.2 µM | [16] 28.2 µM

COc1ccc(C2=Nc3ccccc3NC(=O)C2)cc1
inactive: [1] 31.1 µM | [2] 20.5 µM | [3] > 100 µM | [4] 22.3 µM | [5] > 100 µM | [6] 28.2 µM | [7] > 100 µM | [8] 41.9 µM | [10] 92 µM | [11] > 100 µM | [12] 23.4 µM | [13] 16.7 µM | [14] > 100 µM | [15] > 100 µM | [17] 43.3 µM | [16] > 100 µM

CC(=O)OC1[C@H]2c3cc4c(cc3CN3CCC(=C[C@@H]1O)C23)OCO4 (stereo partly drawn)
inactive: [1] > 100 µM | [3] > 100 µM | [4] > 100 µM | [5] 34.8 µM | [6] 56.8 µM | [7] 46.9 µM | [8] > 100 µM | [9] > 100 µM | [10] > 100 µM | [11] 48.6 µM | [12] 37.2 µM | [13] > 100 µM | [14] > 100 µM | [17] > 100 µM | [16] 23.4 µM
